Here are results for 18 molecules from ChEMBL document CHEMBL3397018, “Discovery of phenylpiperazine derivatives as IGF-1R inhibitor with potent antiproliferative properties in vitro” (Bioorg Med Chem Lett, 2015).

Active and inactive are the calls of the source. No cut-off for these calls is given here.

A short description of series [1]: Antiproliferative activity against human SGC7901 cells after 48 hrs by MTT assay. As to conditions: SGC-7901, 48 h.
Series [2] is described as follows: Antiproliferative activity against human SMMC7721 cells after 48 hrs by MTT assay. Particulars: SMMC-7721, 48 h.
Series [3] is described as follows: Cytotoxicity against human QSG7701 cells after 72 hrs by MTT assay. It counts as cell-based.
Series [4] has as its system MCF7. Briefly: cells. As to conditions: Homo sapiens, MCF7, 48 h.
A short description of series [5]: cells. As to conditions: Homo sapiens, LS174T, 48 h.
Description: Antiproliferative activity against human LS 174T cells after 48 hrs by MTT assay
The target in series [6] is Insulin-like growth factor 1 receptor (Homo sapiens, UniProt P08069). Briefly: Inhibition of NH2-terminal glutathione S-transferase fused human recombinant IGF-IR catalytic domain expressed in insect cells using poly(Glu:Tyr) substrate by ELISA-based assay.
Sequence of Insulin-like growth factor 1 receptor (P08069 31-736 limits assumed): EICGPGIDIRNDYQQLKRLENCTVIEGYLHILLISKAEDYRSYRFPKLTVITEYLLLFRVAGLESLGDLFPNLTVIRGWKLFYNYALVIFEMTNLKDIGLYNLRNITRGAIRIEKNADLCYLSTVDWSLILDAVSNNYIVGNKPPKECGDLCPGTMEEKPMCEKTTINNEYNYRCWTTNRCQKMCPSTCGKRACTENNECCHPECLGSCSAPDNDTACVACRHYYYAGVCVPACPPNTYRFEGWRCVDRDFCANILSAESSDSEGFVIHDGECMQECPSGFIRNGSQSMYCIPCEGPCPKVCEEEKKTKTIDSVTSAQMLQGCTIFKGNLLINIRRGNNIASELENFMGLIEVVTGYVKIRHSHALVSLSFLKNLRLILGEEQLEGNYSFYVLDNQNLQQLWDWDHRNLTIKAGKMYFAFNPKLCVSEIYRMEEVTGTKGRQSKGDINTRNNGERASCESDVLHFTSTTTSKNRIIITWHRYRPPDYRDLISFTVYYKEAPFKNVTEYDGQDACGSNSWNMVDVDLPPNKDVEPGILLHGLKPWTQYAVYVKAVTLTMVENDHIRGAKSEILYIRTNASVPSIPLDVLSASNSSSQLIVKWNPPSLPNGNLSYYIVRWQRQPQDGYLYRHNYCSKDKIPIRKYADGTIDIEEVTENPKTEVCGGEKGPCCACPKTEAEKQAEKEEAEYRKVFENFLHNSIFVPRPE
Sequence of Insulin-like growth factor 1 receptor (P08069 741-1367 limits assumed): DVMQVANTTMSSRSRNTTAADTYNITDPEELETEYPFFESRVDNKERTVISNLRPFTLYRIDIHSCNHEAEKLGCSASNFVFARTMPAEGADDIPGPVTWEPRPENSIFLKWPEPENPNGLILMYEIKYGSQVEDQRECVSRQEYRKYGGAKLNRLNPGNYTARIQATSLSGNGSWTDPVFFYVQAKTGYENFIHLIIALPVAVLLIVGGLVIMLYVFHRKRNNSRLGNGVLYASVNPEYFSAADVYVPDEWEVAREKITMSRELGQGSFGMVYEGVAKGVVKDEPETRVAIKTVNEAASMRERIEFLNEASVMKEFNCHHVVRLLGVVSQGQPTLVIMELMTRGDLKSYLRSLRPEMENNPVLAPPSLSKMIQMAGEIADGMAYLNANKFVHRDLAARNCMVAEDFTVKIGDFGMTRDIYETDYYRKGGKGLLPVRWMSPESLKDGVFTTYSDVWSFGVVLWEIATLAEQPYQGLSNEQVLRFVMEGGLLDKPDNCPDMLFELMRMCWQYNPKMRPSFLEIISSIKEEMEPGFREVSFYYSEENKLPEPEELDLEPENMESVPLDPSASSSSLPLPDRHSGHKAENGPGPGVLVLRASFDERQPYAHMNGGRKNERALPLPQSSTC
In series [7] the test system is MCF7. Kind of series: Induction of apoptosis in human MCF7 cells after 24 hrs by DNA ladder detection based method. Format: functional, cell-based.

With `OC(CN1CCN(c2cccc(C(F)(F)F)c2)CC1)c1ccc(Br)cc1` (stereo not given), the IC50 in series [1] came out at 2.08 µM; in series [2] it was 1.2 µM; in series [4], 0.86 µM; in series [5] it was 0.963 µM. In series [3], this molecule had a CC50 at 72 h of 6600 µM.
As for `Cc1cc(N2CCOCC2)cc2[nH]c(-c3c(NC[C@@H](O)c4cccc(Cl)c4)cc[nH]c3=O)nc12`, the IC50 came to 2.89 µM in series [1], 2.56 µM in series [2], 1.75 µM in series [4] and 2.05 µM in series [5]. The molecule also returned a CC50 at 72 h in series [3] of 32000 µM.
As for `OC(CN1CCN(C(c2ccccc2)c2ccccc2)CC1)c1ccc(Br)cc1` (stereo not given), the IC50 is 0.034 µM in series [6]; 0.253 µM in series [1]; 0.135 µM in series [2]; 0.037 µM in series [4]; 0.111 µM in series [5]. This molecule gave a CC50 at 72 h in series [3] of 2000 µM.
For the molecule `OC(CN1CCN(c2ccccc2)CC1)c1ccc(Br)cc1` (stereo not given), the IC50 was 9.28 µM in series [1], 7.64 µM in series [2], 5.71 µM in series [4] and 8.99 µM in series [5]. The CC50 at 72 h in series [3] amounted to 250 µM.
As for `OC(CN1CCN(c2ccccc2F)CC1)c1ccc(Br)cc1` (stereo not given), the IC50 in series [1] was 16 µM; in series [2], 9.63 µM; in series [4], 16.4 µM; in series [5], 5.34 µM.
Consider `OC(CN1CCN(C(c2ccc(F)cc2)c2ccc(F)cc2)CC1)c1ccc(Br)cc1` (stereo not given), for which the IC50 stood at 0.116 µM in series [1], 0.15 µM in series [2], 0.024 µM in series [4] and 0.068 µM in series [5]. Moreover, the outcome in series [7] was Active.
For `COc1ccccc1N1CCN(CC(O)c2ccc(Br)cc2)CC1` (stereo not given), the IC50 worked out at 4.15 µM in series [1], 2.28 µM in series [2], 1.22 µM in series [4] and 2.57 µM in series [5].
On to `OC(CN1CCN(c2cccc(Cl)c2Cl)CC1)c1ccc(Br)cc1` (stereo not given), for which the IC50 in series [1] came out at 2.47 µM; in series [2], 2.04 µM; in series [4] it was 1.06 µM; in series [5], 1.92 µM.
In the same order, the values of `OC(CN1CCN(c2ccccc2Cl)CC1)c1ccc(Br)cc1` (stereo not given) are 4.62 µM, 3.92 µM, 2.46 µM and 2.54 µM.
Regarding `COc1cccc(N2CCN(CC(O)c3ccc(Br)cc3)CC2)c1` (stereo not given), the IC50 in series [1] is 3.29 µM; in series [2], 2.91 µM; in series [4] it was 1.44 µM; in series [5], 2.06 µM.
Consider `OC(CN1CCN(c2ccc(F)cc2)CC1)c1ccc(Br)cc1` (stereo not given), for which the IC50 amounted to 10.3 µM in series [1], 8.16 µM in series [2], 11.5 µM in series [4] and 4.61 µM in series [5].
Consider `O=[N+]([O-])c1ccc(N2CCN(CC(O)c3ccc(Br)cc3)CC2)cc1` (stereo not given), for which the IC50 was found to be 1.84 µM in series [1], 1.53 µM in series [2], 1.31 µM in series [4] and 2.18 µM in series [5]. In series [3], this molecule came in with a CC50 at 72 h of 1600 µM.
In the case of `OC(CN1CCN(c2cccc(Cl)c2)CC1)c1ccc(Br)cc1` (stereo not given), the IC50 was 22.3 µM in series [1], 7.83 µM in series [2], 10.4 µM in series [4] and 16.9 µM in series [5].
Regarding `COc1ccc(N2CCN(CC(O)c3ccc(Br)cc3)CC2)cc1` (stereo not given), the IC50 in series [1] is 3.46 µM; in series [2] it was 2.82 µM; in series [4], 1.34 µM; in series [5], 2.6 µM.
Consider `OC(CN1CCN(c2ccccn2)CC1)c1ccc(Br)cc1` (stereo not given), for which the IC50 in series [1] came out at 5.7 µM; in series [2], 6.12 µM; in series [4], 3.41 µM; in series [5], 6.61 µM.
For `OC(CN1CCN(Cc2ccccc2)CC1)c1ccc(Br)cc1` (stereo not given), the IC50 in series [6] came to 0.568 µM; in series [1] it was 3.76 µM; in series [2], 3.54 µM; in series [4], 2.88 µM; in series [5] it was 2.69 µM.
Regarding `OC(CN1CCN(c2ccc(Cl)c(Cl)c2)CC1)c1ccc(Br)cc1` (stereo not given), the IC50 stood at 2.14 µM in series [1], 1.68 µM in series [2], 0.777 µM in series [4] and 1.89 µM in series [5].
Regarding `Cc1ccc(N2CCN(CC(O)c3ccc(Br)cc3)CC2)c(C)c1` (stereo not given), the IC50 in series [1] came to 1.39 µM; in series [2] it was 1.48 µM; in series [4] it was 0.863 µM; in series [5], 1.82 µM.
